Data on six molecules can be found in patent publication US11597919B2, “Systems, methods and compositions for sequence manipulation with optimized functional CRISPR-Cas systems” (The Broad Institute, Inc., priority 2013, dated 2023).

Test [1] relates to A375 melanoma cell line (BRAF V600E). Particulars: cited from earlier work.
Test [2] concerns HEK 293FT cells. Description: Nuclease and double-nicking activity of potential nickases, SURVEYOR analysis (Example 10). The format is cell-based, human. The note with it: 400 ng nickase, 100 ng sgRNA. Here is the method:
Nuclease and double-nicking activities for all potential nickases were tested in HEK 293FT cells as follows: co-transfection of 400 ng of nickase and 100 ng of U6-driven sgRNA (100 ng for one guide, or 50 ng each for a pair of sgRNAs) by Lipofectamine 2000 into ˜200,000 cells. DNAs from transfected cells were collected for SURVEYOR analysis.

The subject of test [3] is RNA. The note with it: cited from earlier work.
In test [4] the test system is human EMX1 locus. Description: Sequencing of amplicons containing the EMX1 target locus. Particulars: 327 amplicons. The test is classed as cell-based. Here is the method: HEK 293FT or N2A cells were transfected with plasmid DNA as described above. After transfection, the cells were incubated at 37° C. for 72 hours before genomic DNA extraction. Genomic DNA was extracted using the QuickExtract DNA extraction kit (Epicentre) following the manufacturer's protocol. Briefly, cells were resuspended in QuickExtract solution and incubated at 65° C. for 15 minutes and 98° C. for 10 minutes. Extracted genomic DNA was immediately processed or stored at −20° C.
Since DSBs in mammalian nuclei are partially repaired by the non-homologous end joining (NHEJ) pathway, which leads to the formation of indels, the Surveyor assay was used to detect potential cleavage activity at the target EMX1 locus (FIG. 7) (see e.g. Guschin et al., 2010, Methods Mol Biol 649: 247). Co-transfection of all four CRISPR components was able to induce up to 5.0% cleavage in the protospacer (see FIG. 2D). […] Removing any of the remaining three components abolished the genome cleavage activity of the CRISPR system (FIG. 2D). Sanger sequencing of amplicons containing the target locus verified the cleavage activity: in 43 sequenced clones, 5 mutated alleles (11.6%) were found. Similar experiments using a variety of guide sequences produced indel percentages as high as 29% (see FIGS. 3-6, 10, and 11).

In test [5] the test system is human EMX1 locus. The experiment in a line: Surveyor assay for genome modification at the human EMX1 locus in HEK 293FT cells. The test is classed as cell-based. The note with it: co-expression with EMX1-targeting chimeric crRNA; n=3.
Experimental: Cells were transfected using Lipofectamine 2000 (Life Technologies) following the manufacturer's recommended protocol. For each well of a 24-well plate a total of 800 ng of plasmids were used.
Genomic DNA was extracted using the QuickExtract DNA extraction kit (Epicentre) following the manufacturer's protocol. […] Extracted genomic DNA was immediately processed or stored at −20° C.
The genomic region surrounding a CRISPR target site for each gene was PCR amplified, and products were purified using QiaQuick Spin Column (Qiagen) following manufacturer's protocol. A total of 400 ng of the purified PCR products were mixed with 2 μl 10× Taq polymerase PCR buffer (Enzymatics) and ultrapure water to a final volume of 20 μl, and subjected to a re-annealing process to enable heteroduplex formation: 95° C. for 10 min, 95° C. to 85° C. ramping at −2° C./s, 85° C. to 25° C. at −0.25° C./s, and 25° C. hold for 1 minute. After re-annealing, products were treated with Surveyor nuclease and Surveyor enhancer S (Transgenomics) following the manufacturer's recommended protocol, and analyzed on 4-20% Novex TBE poly-acrylamide gels (Life Technologies). Gels were stained with SYBR Gold DNA stain (Life Technologies) for 30 minutes and imaged with a Gel Doc gel imaging system (Bio-rad). Quantification was based on relative band intensities, as a measure of the fraction of cleaved DNA.
The test system of test [6] is target DNA with 5′-NGG PAM. The experiment in a line: Cleavage of target DNA bearing 5′-NGG PAM by PI domain chimeras (Example 12). The test is classed as cell-based, human. The note with it: 5′-GGGCT. The method, then:
Cells were transfected using Lipofectamine 2000 (Life Technologies) at 70-80% confluency following the manufacturer's recommended protocol.
Genomic DNA was extracted using the QuickExtract DNA Extraction Solution (Epicentre) following the manufacturer's protocol.
400 ng total of the purified PCR products were mixed with 2 μl 10× Taq DNA Polymerase PCR buffer (Enzymatics) and ultrapure water to a final volume of 20 μl, and subjected to a re-annealing process to enable heteroduplex formation: 95° C. for 10 min, 95° C. to 85° C. ramping at −2° C./s, 85° C. to 25° C. at −0.25° C./s, and 25° C. hold for 1 min. After re-annealing, products were treated with SURVEYOR nuclease and SURVEYOR enhancer S (Transgenomics) following the manufacturer's recommended protocol, and analyzed on 4-20% Novex TBE poly-acrylamide gels (Life Technologies). Gels were stained with SYBR Gold DNA stain (Life Technologies) for 30 min and imaged with a Gel Doc gel imaging system (Bio-rad). Quantification was based on relative band intensities. Indel percentage was determined by the formula, 100×(1−(1−(b+c)/(a+b+c))^1/2), where a is the integrated intensity of the undigested PCR product, and b and c are the integrated intensities of each cleavage product.

`CCCS(=O)(=O)Nc1ccc(F)c(C(=O)c2c[nH]c3ncc(Cl)cc23)c1F` [PLX4720]: in test [1], the “sensitivity of cell line to BRAF inhibitor” value is recorded as “naturally sensitive”.

“Cbh-hSpCas9(D10A)-NLS: SpCas9 RuvCI mutant D10A, homology set”: the “Functional?” value in test [2] was “nickase activity”. For the molecule “Cbh-hSpCas9(H840A)-NLS: SpCas9 HNH mutant H840A, homology set”, the “Functional?” value in test [2] is “no activity”. On to “N55K mutant: N55K mutant of the MS2 bacteriophage coat protein”, for which the binding affinity entry in test [3] is recorded as “higher binding affinity than wild type MS2”. Turning to “SpCas9n: SpCas9 with aspartate-to-alanine substitution (D10A) in the RuvC I catalytic domain, a nickase”, the “indels detected by sequencing” value in test [4] is on record as “did not detect any indels”. In test [5], the “indels at the EMX1 protospacer target” value is “does not generate indels”.

B1: Sp-St3Cas9: SpCas9 with the PI domain of St3Cas9, SEQ ID NO: 121 (protein)
chain: MDYKDHDGDYKDHDIDYKDDDDKMAPKKKRKVGIHGVPAADKKYSIGLDIGTNSVGWAVITDEYKVPSKKFKVLGNTDRHSIKKNLIGALLFDSGETAEATRLKRTARRRYTRRKNRICYLQEIFSNEMAKVDDSFFHRLEESFLVEEDKKHERHPIFGNIVDEVAYHEKYPTIYHLRKKLVDSTDKADLRLIYLALAHMIKFRGHFLIEGDLNPDNSDVDKLFIQLVQTYNQLFEENPINASGVDAKAILSARLSKSRRLENLIAQLPGEKKNGLFGNLIALSLGLTPNFKSNFDLAEDAKLQLSKDTYDDDLDNLLAQIGDQYADLFLAAKNLSDAILLSDILRVNTEITKAPLSASMIKRYDEHHQDLTLLKALVRQQLPEKYKEIFFDQSKNGYAGYIDGGASQEEFYKFIKPILEKMDGTEELLVKLNREDLLRKQRTFDNGSIPHQIHLGELHAILRRQEDFYPFLKDNREKIEKILTFRIPYYVGPLARGNSRFAWMTRKSEETITPWNFEEVVDKGASAQSFIERMTNFDKNLPNEKVLPKHSLLYEYFTVYNELTKVKYVTEGMRKPAFLSGEQKKAIVDLLFKTNRKVTVKQLKEDYFKKIECFDSVEISGVEDRFNASLGTYHDLLKIIKDKDFLDNEENEDILEDIVLTLTLFEDREMIEERLKTYAHLFDDKVMKQLKRRRYTGWGRLSRKLINGIRDKQSGKTILDFLKSDGFANRNFMQLIHDDSLTFKEDIQKAQVSGQGDSLHEHIANLAGSPAIKKGILQTVKVVDELVKVMGRHKPENIVIEMARENQTTQKGQKNSRERMKRIEEGIKELGSQILKEHPVENTQLQNEKLYLYYLQNGRDMYVDQELDINRLSDYDVDHIVPQSFLKDDSIDNKVLTRSDKNRGKSDNVPSEEVVKKMKNYWRQLLNAKLITQRKFDNLTKAERGGLSELDKAGFIKRQLVETRQITKHVAQILDSRMNTKYDENDKLIREVKVITLKSKLVSDFRKDFQFYKVREINNYHHAHDAYLNAVVGTALIKKYPKLESEFVYGDYKVYDVRKMIAKSEQEIGKATAKYFFYSNIMNFFKTEITLANGEIRKRPLIETNGETGEIVWDKGRDFATVRKVLSMPQVNIVKKTVEEQNHGLDRGKPKGLFNANLSSKPKPNSNENLVGAKEYLDPKKYGYGGYAGISNSFTVLVKGTIEKGAKKKITNVLEFQGISILDRINYRKDKLNFLLEKGYKDIELIIELPKYSLFELSDGSRRMLASILSTNNKRGEIHKGNQIFLSQKFVKLLYHAKRISNTINENHRKYVENHKKEFEELFYYILEFNENYVGAKKNGKLLNSAFQSWQNHSIDELCSSFIGPTGSERKGLFELTSRGSAADFEFLGVKIPRYRDYTPSSLLKDATLIHQSVTGLYETRIDLAKLGEGKRPAATKKAGQAKKKK
B1: in test [6], the “cleavage of target DNA with 5′-NGG PAM” value was “retained cleavage activity for the target DNA with 5′-NGG PAM, albeit at a lower level than that of SpCas9”.
